What was measured:
Settings in all cases: 72 h
Caco-2 [1] = assay: cell viability relative to DMSO; higher = less toxic
Calu-3 [2] = assay: as above
HepG2 [3] = assay: as above
U2OS [4] = assay: as above
Caco-2 [5] = assay: relative viability EC50 (midpoint between 100% and the lowest measured viability); higher = less toxic
Calu-3 [6] = assay: as above
HepG2 [7] = assay: as above
U2OS [8] = assay: as above
Caco-2 [9] = assay: drug sensitivity score (DSS) for viability; higher = more toxic; extreme values may be limits of the assay
Calu-3 [10] = assay: as above
HepG2 [11] = assay: as above
U2OS [12] = assay: as above
Vero E6 [13] = assay: cell viability relative to DMSO; higher = less toxic
Vero E6 [14] = assay: drug sensitivity score (DSS) for viability; higher = more toxic; extreme values may be limits of the assay
Vero E6 [15] = assay: relative viability EC50 (midpoint between 100% and the lowest measured viability); higher = less toxic

Row | SMILES | cell viability (Caco-2 [1]; 1 nM) | cell viability (Caco-2 [1]; 10 nM) | cell viability (Caco-2 [1]; 100 nM) | cell viability (Caco-2 [1]; 1000 nM) | cell viability (Caco-2 [1]; 10000 nM) | cell viability (Calu-3 [2]; 1 nM) | cell viability (Calu-3 [2]; 10 nM) | cell viability (Calu-3 [2]; 100 nM) | cell viability (Calu-3 [2]; 1000 nM) | cell viability (Calu-3 [2]; 10000 nM) | cell viability (HepG2 [3]; 1 nM) | cell viability (HepG2 [3]; 10 nM) | cell viability (HepG2 [3]; 100 nM) | cell viability (HepG2 [3]; 1000 nM) | cell viability (HepG2 [3]; 10000 nM) | cell viability (U2OS [4]; 1 nM) | cell viability (U2OS [4]; 10 nM) | cell viability (U2OS [4]; 100 nM) | cell viability (U2OS [4]; 1000 nM) | cell viability (U2OS [4]; 10000 nM) | relative viability EC50 (Caco-2 [5]) | relative viability EC50 (Calu-3 [6]) | relative viability EC50 (HepG2 [7]) | relative viability EC50 (U2OS [8]) | drug sensitivity score (Caco-2 [9]) | drug sensitivity score (Calu-3 [10]) | drug sensitivity score (HepG2 [11]) | drug sensitivity score (U2OS [12]) | cell viability (Vero E6 [13]; 1 nM) | cell viability (Vero E6 [13]; 10 nM) | cell viability (Vero E6 [13]; 100 nM) | cell viability (Vero E6 [13]; 1000 nM) | cell viability (Vero E6 [13]; 10000 nM) | drug sensitivity score (Vero E6 [14]) | relative viability EC50 (Vero E6 [15])
1 | CC[C@H](C)[C@H](NC(=O)[C@H](Cc1ccc(O)cc1)NC(=O)[C@@H](NC(=O)[C@H](CCCNC(=N)N)NC(=O)[C@@H](N)CC(=O)O)C(C)C)C(=O)N[C@@H](Cc1c[nH]cn1)C(=O)N1CCC[C@H]1C(=O)O [TXA127] | 104% | 110% | 98.2% | 99.4% | 89.4% | 95.2% | 90.6% | 97.9% | 89.2% | 105% | 96.2% | 105% | 89.3% | 104% | 92.4% | 98.9% | 98.7% | 99.1% | 93.3% | 96.9% | > 10 µM | > 10 µM | > 10 µM | > 10 µM | 0 | 0 | 0 | 0 |  |  |  |  |  |  | 
2 | NC(=O)c1nc(Nc2ccccc2)sc1NC(=O)C1CCCCC1 [UNC3230] | 98.6% | 97.8% | 98% | 89.2% | 75.1% | 86.3% | 84.9% | 90.8% | 79% | 69.7% | 96.6% | 104% | 88.1% | 104% | 88.5% | 102% | 96.9% | 97.5% | 93.8% | 88.8% | > 10 µM |  | > 10 µM | > 10 µM | 1.9 | 5.6 | 0 | 0 | 99.1% | 92.6% | 98.1% | 99% | 70.8% | 1.4 | 
3 | CCOc1ccc2nc(SCCN3CCOCC3)[nH]c2c1 [afobazole] | 102% | 110% | 104% | 99.5% | 102% | 95.5% | 97.8% | 84.4% | 101% | 99.8% | 112% | 101% | 107% | 99.5% | 103% |  |  |  |  |  | > 10 µM | > 10 µM | > 10 µM |  | 0 | 0 | 0 |  |  |  |  |  |  |  | 
4 | CCC1(c2ccc(N)cc2)CCC(=O)NC1=O (stereo not given) [aminoglutethimide] | 109% | 97.2% | 105% | 112% | 111% | 112% | 95.6% | 103% | 93.2% | 102% | 90.7% | 96% | 85.3% | 77.2% | 71.8% | 102% | 105% | 105% | 101% | 98.6% | > 10 µM | > 10 µM |  | > 10 µM | 0 | 0 | 4.8 | 0 | 97.6% | 101% | 91.3% | 86.9% | 100% | 0 | > 10 µM
5 | CN(C)/N=N/c1[nH]cnc1C(N)=O [dacarbazine] | 100% | 97.8% | 97% | 103% | 93.4% | 91.9% | 102% | 95.9% | 110% | 95.7% | 106% | 90.7% | 99.2% | 90.5% | 72.7% | 97.7% | 99.2% | 94.9% | 102% | 92.7% | > 10 µM | > 10 µM |  | > 10 µM | 0 | 0 | 2.3 | 0 | 98.6% | 94.2% | 94.4% | 97.2% | 100% | 0 | > 10 µM
6 | Cc1cc(C)c(Nc2ccnc(Nc3ccc(C#N)cc3)n2)c(C)c1 [dapivirine] | 104% | 94.5% | 99.3% | 86% | 47.8% | 108% | 100% | 97.1% | 100% | 74.4% | 107% | 120% | 95.4% | 103% | 17.3% | 97.7% | 100% | 101% | 99% | 40.3% | 1.49 µM |  | 3.38 µM | 3.05 µM | 4.9 | 1 | 4.3 | 3.4 | 93.7% | 101% | 92.9% | 94.7% | 61.5% | 2.8 | 
7 | COc1ccc(C(=O)c2ccccc2O)c(O)c1 [dioxybenzone] | 101% | 91% | 106% | 98.7% | 101% | 106% | 93.3% | 97.7% | 91.1% | 106% | 102% | 92% | 96.9% | 96% | 99.3% | 103% | 99% | 100% | 105% | 102% | > 10 µM | > 10 µM | > 10 µM | > 10 µM | 0 | 0 | 0 | 0 | 110% | 73.6% | 92.4% | 99.4% | 67.2% | 1.6 | 
8 | Oc1ccc([C@@H]2Oc3ccc(O)cc3[C@@H]3CCC[C@@H]32)cc1 [erteberel] | 95.4% | 94.4% | 96.7% | 92.8% | 86.8% | 108% | 109% | 108% | 98.3% | 102% | 102% | 101% | 97.6% | 108% | 52.4% | 97.5% | 95.6% | 102% | 98.9% | 82.9% | > 10 µM | > 10 µM |  | > 10 µM | 0 | 0 | 2 | 0.5 | 94.8% | 99% | 92.5% | 99.4% | 87.8% | 0 | > 10 µM
9 | Nc1nc(=O)n([C@H]2C[C@H](O)[C@@H](CO)O2)cc1F [fdcyd] | 93.4% | 106% | 94.9% | 113% | 86.1% | 85.1% | 108% | 84.1% | 85.5% | 68.3% | 117% | 89.8% | 60.1% | 55.2% | 49.8% | 102% | 106% | 95.8% | 104% | 86.2% | > 10 µM |  | 0.0346 µM | > 10 µM | 0.1 | 3.4 | 14.8 | 0.1 | 99.3% | 105% | 90.7% | 66.4% | 54.9% | 7 | 
10 | C[N+](C)(C)CCCCCC[N+](C)(C)C [hexamethonium] | 97.3% | 104% | 98.2% | 99.4% | 100% | 86.3% | 97.1% | 101% | 108% | 103% | 109% | 96.7% | 97.6% | 95.3% | 96.6% | 100% | 102% | 96.2% | 103% | 99.8% | > 10 µM | > 10 µM | > 10 µM | > 10 µM | 0 | 0 | 0 | 0 |  |  |  |  |  |  | 
11 | COc1ccc(C(=O)c2ccccc2)c(O)c1 [oxybenzone] | 99.6% | 94.4% | 98.9% | 101% | 97.8% |  |  |  |  |  | 112% | 112% | 98.9% | 114% | 103% | 103% | 103% | 101% | 98.2% | 100% | > 10 µM |  | > 10 µM | > 10 µM | 0 |  | 0 | 0 |  |  |  |  |  |  | 
12 | Cc1ccc(N(CC2=NCCN2)c2cccc(O)c2)cc1 [phentolamine] | 99% | 98.8% | 109% | 97.4% | 91.1% | 99.8% | 103% | 105% | 93.5% | 106% | 96.8% | 96.5% | 106% | 106% | 104% | 99.3% | 100% | 94.7% | 101% | 97.3% | > 10 µM | > 10 µM | > 10 µM | > 10 µM | 0 | 0 | 0 | 0 |  |  |  |  |  |  | 
13 | C[C@]12CC[C@H](O)C[C@H]1CC[C@@H]1[C@@H]2CC[C@]2(C)[C@@H](c3ccc(=O)oc3)C[C@H]3O[C@]132 [resibufogenin] | 96.3% | 98.8% | 106% | 94.7% | 25.1% | 102% | 94.8% | 106% | 99.4% | 45.7% | 115% | 100% | 109% | 90.5% | 63.6% | 97% | 104% | 98.9% | 101% | 6.5% | 2.59 µM | 3.09 µM |  | 3.23 µM | 4.9 | 3 | 3.2 | 5.1 | 106% | 101% | 102% | 11.3% | 2.1% | 16 | 0.426 µM
14 | C=C[C@]1(C)C[C@@H](OC(=O)CS[C@@H]2C[C@H]3CC[C@@H](C2)N3C)[C@]2(C)[C@H](C)CC[C@]3(CCC(=O)[C@H]32)[C@@H](C)[C@@H]1O [retapamulin] | 94.7% | 98.2% | 112% | 92.8% | 98.8% | 107% | 98.5% | 104% | 98.2% | 97.8% | 96.9% | 101% | 89.4% | 85.9% | 74% | 103% | 98.4% | 102% | 101% | 99.1% | > 10 µM | > 10 µM |  | > 10 µM | 0 | 0 | 2.6 | 0 | 94.9% | 101% | 90.4% | 93.9% | 91.5% | 0 | > 10 µM
15 | CC(N)C12CC3CC(CC(C3)C1)C2 (stereo not given) [rimantadine] | 101% | 94.6% | 101% | 103% | 103% | 91% | 84.1% | 82.5% | 96.6% | 95.6% | 93.6% | 108% | 100% | 101% | 103% | 95.3% | 98% | 101% | 102% | 104% | > 10 µM | > 10 µM | > 10 µM | > 10 µM | 0 | 0 | 0 | 0 |  |  |  |  |  |  | 
16 | Cc1ccc(C(=O)c2ccc(CC(=O)O)n2C)cc1 [tolmetin] | 90.4% | 94.6% | 94.6% | 90.7% | 105% | 88.7% | 97.8% | 92.4% | 90.9% | 96.6% | 109% | 109% | 100% | 108% | 93.7% | 96.8% | 102% | 92.4% | 97.8% | 102% | > 10 µM | > 10 µM | > 10 µM | > 10 µM | 0 | 0 | 0 | 0 |  |  |  |  |  |  | 
